Measured values taken from paper PMC5078989, “Targeted inhibition of the COP9 signalosome for treatment of cancer” (Nature Communications, 2016).

Tested on: panel of cancer cell lines
Experiment: Cell viability (CellTiter-Glo) dose-response across cancer cell line panel;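 also: after 72 h compound incubation with CellTiter-Glo ATP readout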
Format: cell-based, human
Conditions: Homo sapiens
Description: Next, we explored the effect of CSN5 inhibition on the viability of cancer cells. To obtain a comprehensive picture, we generated dose–response curves with a CSN5 inhibitor across more than 500 cancer cell lines in a previously described standardized setting[47] (Supplementary Data 1).
A standardized CellTiter-Glo Assay (Promega #G7570) based on the quantification of ATP was applied according to the manufacturer's protocol to measure the amount of viable cells in culture. In brief, cells were seeded into 384-well plates at optimal density for each cell line. After 4 h, compounds were added at different concentrations in growth medium and incubated for another 72 h in a humidifying chamber at 37 °C and 5% CO2. […] EC50 values were calculated from the plot of percentage of inhibition versus inhibitor concentration using the nonlinear regression analysis software Origin 7.5SR6 (OriginLab Corp.).

EC50 (MOG-G-CCM): 3480 nM
EC50 (MOLM16, MOLM-16): 133 nM
EC50 (MOLM-13, MOLM-13): 262 nM
EC50 (MOLT-13, MOLT-13): 217 nM
EC50 (MOLT-16, MOLT-16): 341 nM
EC50 (MSTO-211H): 1350 nM
EC50 (MV4-11, MV-4-11): 454 nM
EC50 (Malme-3M): 2060 nM
EC50 (MeWo): 472 nM
EC50 (Mono-Mac-1, MONO-MAC-1): 747 nM
EC50 (NALM-6, NALM-6): 209 nM
EC50 (NB1, NB-1): 531 nM
EC50 (NB-4, NB-4): 212 nM
EC50 (NCI-H23, NCI-H23): 347 nM
EC50 (NCI-H28, NCI-H28): 4700 nM
EC50 (NCI-H82, NCI-H82): 5190 nM
EC50 (NCI-H146, NCI-H146): 5250 nM
EC50 (NCI-H211, NCI-H211): 1730 nM
EC50 (NCI-H322, NCI-H322): 2540 nM
EC50 (NCI-H441, NCI-H441): 3410 nM
EC50 (NCI-H460, NCI-H460): 8610 nM
EC50 (NCI-H520, NCI-H520): 10800 nM
EC50 (NCI-H647, NCI-H647): > 30000 nM
EC50 (NCI-H650, NCI-H650): > 30000 nM
EC50 (NCI-H661, NCI-H661): 457 nM
EC50 (NCI-H747, NCI-H747): 733 nM
EC50 (NCI-H810, NCI-H810): 754 nM
EC50 (NCI-H838, NCI-H838): 1000 nM
EC50 (NCI-H841, NCI-H841): 1040 nM
EC50 (NCI-H1048, NCI-H1048): 1920 nM
EC50 (NCI-H1155, NCI-H1155): 653 nM
EC50 (NCI-H1299, NCI-H1299): 1520 nM
EC50 (NCI-H1339, NCI-H1339): 1130 nM
EC50 (NCI-H1341): 2010 nM
EC50 (NCI-H1355, NCI-H1355): 1280 nM
EC50 (NCI-H1373, NCI-H1373): 9300 nM
EC50 (NCI-H1437, NCI-H1437): 17700 nM
EC50 (NCI-H1568, NCI-H1568): 434 nM
EC50 (NCI-H1650, NCI-H1650): 1820 nM
EC50 (NCI-H1666, NCI-H1666): 11900 nM
EC50 (NCI-H1703, NCI-H1703): 1640 nM
EC50 (NCI-H1755, NCI-H1755): 967 nM
EC50 (NCI-H1792, NCI-H1792): 2270 nM
EC50 (NCI-H1915, NCI-H1915): 1270 nM
EC50 (NCI-H1975, NCI-H1975): 2830 nM
EC50 (NCI-H2023, NCI-H2023): 518 nM
EC50 (NCI-H2030, NCI-H2030): 559 nM
EC50 (NCI-H2073, NCI-H2073): 4450 nM
EC50 (NCI-H2087, NCI-H2087): 1120 nM
EC50 (NCI-H2110, NCI-H2110): 1760 nM
EC50 (NCI-H2122, NCI-H2122): 893 nM
EC50 (NCI-H2126, NCI-H2126): > 30000 nM
EC50 (NCI-H2170, NCI-H2170): 17500 nM
EC50 (NCI-H2171, NCI-H2171): 1340 nM
EC50 (NCI-H2172, NCI-H2172): 4890 nM
EC50 (NCI-H2228, NCI-H2228): 4930 nM
EC50 (NCI-H2286, NCI-H2286): 364 nM
EC50 (NCI-H2444, NCI-H2444): 322 nM
EC50 (NCI-H2452, NCI-H2452): 1940 nM
EC50 (NCI-H3255, NCI-H3255): > 30000 nM
EC50 (NCI-N87, NCI-N87): 106 nM
EC50 (NO36): 2000 nM
EC50 (NOMO-1, NOMO-1): 1640 nM
EC50 (NUGC-3, NUGC-3): 6500 nM
EC50 (OCI-AML-3, OCI-AML3): 1180 nM
EC50 (OCI-AML-5, OCI-AML5): 677 nM
EC50 (OCI-Ly3, OCI-LY3): 404 nM
EC50 (ONCO-DG-1, ONCO-DG-1): 1110 nM
EC50 (OUMS-23, OUMS-23): 747 nM
EC50 (OV56, OV56): 401 nM
EC50 (OVCAR-3, NIH:OVCAR-3): 523 nM
EC50 (OVCAR-4, OVCAR-4): 1540 nM
EC50 (OVISE): 29100 nM
EC50 (P3HR-1, P3HR-1): 560 nM
EC50 (P12-Ichikawa): 279 nM
EC50 (P31-FUJ, P31/FUJ): 690 nM
EC50 (PANC-1, PANC-1): 477 nM
EC50 (PANC-03-27, Panc 03.27): 679 nM
EC50 (PC-3, PC-3): 5890 nM
EC50 (PC-14, PC-14): 8990 nM
EC50 (PE/CA-PJ49): 970 nM
EC50 (PF-382, PF-382): 262 nM
EC50 (PK-1, PK-1): 2710 nM
EC50 (PK-45H): 1860 nM
EC50 (PK-59, PK-59): 1760 nM
EC50 (PL45, PL45): 722 nM
EC50 (PL-21, PL-21): 684 nM
EC50 (PLC-PRF-5, PLC/PRF/5): 6990 nM
EC50 (PSN1, PSN1): 1680 nM
EC50 (PaTu 8902, PA-TU-8902): 2330 nM
EC50 (PaTu 8988t, PA-TU-8988T): 5870 nM
EC50 (Panc 04.03, Panc 04.03): 6710 nM
EC50 (Panc1005, Panc 10.05): 308 nM
EC50 (QGP-1, QGP-1): > 30000 nM
EC50 (RCM-1, RCM-1): 2700 nM
EC50 (RD): 1830 nM
EC50 (RD-ES): 839 nM
EC50 (RERF-LC-AI): 581 nM
EC50 (RERF-LC-MS): 1560 nM
EC50 (RKN): 1130 nM
EC50 (RKO): 2720 nM
EC50 (RMUG-S): > 30000 nM
EC50 (RPMI 8402, RPMI-8402): 633 nM
EC50 (RPMI-7951, RPMI-7951): 16000 nM
EC50 (RT-112, RT-112): 5730 nM
EC50 (RVH-421, RVH-421): 2430 nM
EC50 (Rh41, RH-41): 952 nM
EC50 (SCC-25, SCC-25): 9930 nM
EC50 (SCaBER): 3550 nM
EC50 (SEM): 728 nM
EC50 (SF8657): > 30000 nM
EC50 (SF-268, SF-268): 1880 nM
EC50 (SH-4, SH-4): 426 nM
EC50 (SH-10-TC): 1390 nM
EC50 (SH-SY5Y): 3480 nM
EC50 (SJRH30, SJRH30): 1930 nM
EC50 (SK-CO-1, SK-CO-1): 1220 nM
EC50 (SK-ES1, SK-ES-1): 543 nM
EC50 (SK-HEP1, SK-HEP-1): 979 nM
EC50 (SK-LU-1, SK-LU-1): 3370 nM
EC50 (SK-MEL3, SK-MEL-3): 20000 nM
EC50 (SK-MEL-2, SK-MEL-2): 1940 nM
EC50 (SK-MEL-5, SK-MEL-5): 1590 nM
EC50 (SK-MEL-28, SK-MEL-28): 419 nM
EC50 (SK-MEL-30, SK-MEL-30): 2280 nM
EC50 (SK-MEL-31): 5350 nM
EC50 (SK-N-SH): 2610 nM
EC50 (SK-OV-3, SK-OV-3): > 30000 nM
EC50 (SKM-1, SKM-1): 487 nM
EC50 (SKNBE2, SK-N-BE(2)): 455 nM
EC50 (SNB-19, SNB-19): 2200 nM
EC50 (SNG-M): 370 nM
EC50 (SNU878, SNU-878): 6720 nM
EC50 (SNU-8): 601 nM
EC50 (SNU-16, SNU-16): 2080 nM
EC50 (SNU-61): 1990 nM
EC50 (SNU-81): 733 nM
EC50 (SNU-175): 806 nM
EC50 (SNU-213): 4010 nM
EC50 (SNU-349): 3550 nM
EC50 (SNU-387, SNU-387): 666 nM
EC50 (SNU-398, SNU-398): 277 nM
EC50 (SNU-410): 21100 nM
EC50 (SNU-423, SNU-423): 1310 nM
SMILES: COCc1ccccc1NCc1ccc([C@H]2[C@@H](O)CCCc3cncn32)c(-c2ccccc2Cl)c1 [CSN5i-2, (5S,6S)-5-(2′-chloro-5-(((2-(methoxymethyl)phenyl)amino)methyl)-[1,1′-biphenyl]-2-yl)-6,7,8,9-tetrahydro-5H-imidazo[1,5-a]azepin-6-ol]
